Several values for one entry are separate records, joined by “and”; a condition that tells them apart may be missing. Equal values may be shown once.
Key:
[1] = test system: Red blood cells from SCD patients; experiment: Ex vivo Hgb oxygen equilibrium curves in SCD RBCs; assay type: cell-based, human; conditions: 10 μM
Method: Red blood cells from SCD patients were used to evaluate the effects of Compound 1 on Hgb affinity for oxygen (i.e., oxygen affinity) and sickling under hypoxic conditions. Cells were incubated at 37° C. for 1, 2, and 3 hr with HEPES buffered saline (HBS) (untreated), HBS+dimethyl sulfoxide (DMSO) (vehicle), or 10 μM Compound 1. To assess oxygen dissociation, Hgb oxygen equilibrium curves were collected during deoxygenation.

[2] = test system: p50 (PO2 at 50% hemoglobin saturation); experiment: Phase 1 SAD/MAD: p50 (Hemox Analyzer) in healthy volunteers; assay type: in vivo, human; conditions: for Mean p50 Value: 24 hours after first dose on day 14; for Mean Absolute Change in p50 / Mean Percentage Change in p50: 24 hours after first dose on day 14, relative to baseline; for median reduction in p50: all dose levels; for Mean Absolute Change in p50 (mmHg): 24 hours after dose, relative to baseline
Method: In the SAD cohorts, the subjects' p50 (PO2 at 50% hemoglobin saturation) were determined 24-hours post-dose. p50 measured 24 hours after a single dose of Compound 1 were reduced at all dose levels tested (median reduction ranged from ˜3-5 mmHg). Table 17 reports the mean absolute change in p50, relative to baseline, measured 24 hours after a single dose of Compound 1 (200 mg, 400 mg, 700 mg, or 1000 mg) or placebo in healthy volunteers.
In the MAD cohorts, the subjects' p50 (PO2 at 50% hemoglobin saturation) were determined on day 14. p50 values measured after 14 days of twice daily dosing were reduced at all dose levels tested (median reduction ranged from ˜3-5 mmHg). Table 19 reports the mean p50 value and the mean absolute change and percentage change in p50, relative to baseline, measured 24 hours after the first dose given on day 14 in healthy volunteers who received daily doses of Compound 1 (100 mg BID, 200 mg BID, 300 mg BID, or 400 mg QD) or placebo for 14 days.
The oxygen affinity of RBCs was measured in patient blood using a Hemox Analyzer (TCS Scientific Corp.), an automatic system for the recording of blood oxygen equilibrium curves and related phenomena. The Hemox Analyzer was used according to standard methods to determine the hemoglobin-oxygen dissociation curves for whole blood samples, numerically characterized by the p50, the partial pressure of oxygen at which hemoglobin is 50% saturated. The operating principle of the Hemox-Analyzer is based on dual-wavelength spectrophotometry for the measurement of the optical properties of hemoglobin and a Clark electrode for measuring the oxygen partial pressure in millimeters of mercury. Whole blood is diluted and placed into a special plastic cuvette that is maintained at 37° C. To perform the analysis, a beam of polychromatic light is passed through the cuvette and is made monochromatic prior to reaching the photomultiplier detectors. In the case of hemoglobin, the wavelength of maximum absorbance is the measuring wavelength (560 nm), while the reference wavelength is at the isosbestic point at (570 nm). The absorbance at the isosbestic point remains unchanged during the deoxygenation process of the hemoglobin, however the measuring wavelength (560 nm) undergoes a drastic change in absorbance. This change is detected by the electronic circuitry and is plotted as the log/ratio change between the two wavelengths. The log/ratio measurement at 560 nm and 570 nm is utilized to measure the optical absorbance change during the deoxygenation of the hemoglobin. Simultaneously with the measurement of the hemoglobin absorbance, the oxygen concentration is directly measured in the sample using a Clark electrode. Under normal atmospheric conditions of 760 mm of mercury the oxygen concentration (i.e., the oxygen partial pressure) is 149 mm of mercury. This saturation point is used for full-scale calibration of the computer prior to starting the plotting of the curve. When the oxygen is being replaced by an inert gas (nitrogen) in a continuous procedure, hemoglobin becomes deoxygenated.

[3] = Phase 1: hematologic and hemolytic laboratory parameters in SCD patients; assay type: in vivo, human
Excerpt: Laboratory changes relative to pretreatment for each pt in the MD cohort as of Jul. In 2 of 3 SCD MD-1 pts treated with Compound 1/placebo (currently blinded), Hb increased by >1 g/dL, % reticulocytes decreased, and markers of hemolysis were improved after 14 days of treatment (compared to pre-treatment levels). Hematologic parameters returned to pre-treatment levels 4 to 7 days post-treatment (data not shown) without clinical AEs.
A median 1.2 g/dL Hb increase (range 0, 2.3) and a median 60% reticulocyte decrease (range −39%, −81%) over baseline were observed. The onset of the increase in Hb was rapid and continued to increase in most patients through the end of treatment, indicating the potential for additional improvement with extended dosing. […] A median 36% LDH decrease (range +18%, −57%) and a median 35% bilirubin decrease (range −7%, −63%) over baseline were observed, which is consistent with the hypothesis that Compound 1 improves RBC survival and reduces RBC turnover.

[4] = SCD MAD1, 300 mg once daily 14 days, of 7 patients

O=C([C@H](CO)c1ccccc1)N1CC2=C(C1)CN(S(=O)(=O)c1cnc3c(c1)OCCO3)C2 (single isomer, unassigned) [Compound 1]
Hgb saturation higher compared to DMSO-treated cells ([1]; 2 hr): approximately 10% | p50 ([1]; after 1 hr, shifted from 29 mmHg): 25 mmHg | Hemoglobin Saturation ([1]; incubation 1 hr, normalized to 1.00 (DMSO 1.18)): 1.05 | Hemoglobin Saturation ([1]; incubation 2 hr, normalized to 1.00 (DMSO 1.18)): 1.00 | Hemoglobin Saturation ([1]; incubation 3 hr, normalized to 1.00 (DMSO 1.30)): 1.02 | Mean p50 Value ([2]; HV 100 mg BID): 22.96 mmHg | Mean Absolute Change in p50 ([2]; HV 100 mg BID): −3.26 mmHg | Mean Percentage Change in p50 ([2]; HV 100 mg BID): −12.42% | Mean p50 Value ([2]; HV 200 mg BID): 22.33 mmHg | Mean Absolute Change in p50 ([2]; HV 200 mg BID): −5.34 mmHg | Mean Percentage Change in p50 ([2]; HV 200 mg BID): −19.33% | Mean p50 Value ([2]; HV 300 mg BID): 21.69 mmHg | Mean Absolute Change in p50 ([2]; HV 300 mg BID): −4.24 mmHg | Mean Percentage Change in p50 ([2]; HV 300 mg BID): −16.05% | Mean p50 Value ([2]; HV 400 mg QD): 21.75 mmHg | Mean Absolute Change in p50 ([2]; HV 400 mg QD): −4.09 mmHg | Mean Percentage Change in p50 ([2]; HV 400 mg QD): −15.76% | median reduction in p50 ([2]; HV MAD cohorts, after 14 days of dosing): 3-5 mmHg | Mean Maximum Percent Change from Baseline, p50 ([2]; HV MAD, all doses and timepoints (N = 36)): −15.9% | median reduction in p50 ([2]; HV SAD, 24 hours after a single dose): 3-5 mmHg | Mean Maximum Percent Change from Baseline, p50 ([2]; HV SAD, all doses and timepoints (N = 24)): −15.6% | Mean Absolute Change in p50 (mmHg) ([2]; HV single 200 mg): −2.91 mmHg | Mean Absolute Change in p50 (mmHg) ([2]; HV single 400 mg): −3.41 mmHg | Mean Absolute Change in p50 (mmHg) ([2]; HV single 700 mg): −4.85 mmHg | Mean Absolute Change in p50 (mmHg) ([2]; HV single 1000 mg): −5.05 mmHg | patients with >1 g/dL increase in hemoglobin ([3]; SCD MAD1, 300 mg once daily 14 days): 6/7 | median Hb increase over baseline ([3]; SCD MAD1, 300 mg once daily 14 days (n = 7), range 0, 2.3): 1.2 g/dL | patients with a decrease in reticulocytes [3, 4]: 7 and 7/7 | patients with a decrease in total bilirubin [3, 4]: 7 | median LDH decrease over baseline ([3]; SCD MAD1, 300 mg once daily 14 days, range +18%, −57%): 36% | median bilirubin decrease over baseline ([3]; SCD MAD1, 300 mg once daily 14 days, range −7%, −63%): 35% | median reticulocyte decrease over baseline ([3]; SCD MAD1, 300 mg once daily 14 days, range −39%, −81%): 60% | increase in Hb compared with pre-dose on day 1 ([3]; one SCD patient, 300 mg once daily, sustained through day 21, no hydroxyurea): > 2 g/dL
